In PubChem BioAssay AID2060618 (Molecular Pharmacology Branch, DTP, NCI, 2025):

Test system: 454973-116-R2-J3-PDC spheroids, percent test/control viability
Assay: Anticancer human tumor 454973-116-R2-J3-PDC patient-derived pancreatic carcinoma cell line growth inhibition [CLK]
Settings: spheroids with HUVEC and MSC; for IC50: curve of first compound; for viability, T/C: stronger effect = lower value
Procedure, shortened: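 Patient-derived tumor cells grown as complex spheroids with HUVEC endothelial cells and mesenchymal stem cells, treated with drug combinations. Concentrations descend in half-log steps from near clinical Cmax, or from 10 microM if Cmax unknown.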

[1] = second compound 0.0316 µM, first compound 0.0316 µM
[2] = second compound 0.0316 µM, first compound 0.1 µM
[3] = second compound 0.0316 µM, first compound 0.316 µM
[4] = second compound 0.0316 µM, first compound 1 µM
[5] = second compound 0.0316 µM, first compound 3.16 µM
[6] = second compound 0.0316 µM, first compound 10 µM
[7] = second compound 0.1 µM, first compound 0.0316 µM
[8] = second compound 0.1 µM, first compound 0.1 µM
[9] = second compound 0.1 µM, first compound 0.316 µM
[10] = second compound 0.1 µM, first compound 1 µM
[11] = second compound 0.1 µM, first compound 3.16 µM
[12] = second compound 0.1 µM, first compound 10 µM
[13] = second compound 0.316 µM, first compound 0.0316 µM
[14] = second compound 0.316 µM, first compound 0.1 µM
[15] = second compound 0.316 µM, first compound 0.316 µM
[16] = second compound 0.316 µM, first compound 1 µM
[17] = second compound 0.316 µM, first compound 3.16 µM
[18] = second compound 0.316 µM, first compound 10 µM
[19] = second compound 1 µM, first compound 0.0316 µM
[20] = second compound 1 µM, first compound 0.1 µM
[21] = second compound 1 µM, first compound 0.316 µM
[22] = second compound 1 µM, first compound 1 µM
[23] = second compound 1 µM, first compound 3.16 µM
[24] = second compound 1 µM, first compound 10 µM
[25] = second compound 3.16 µM, first compound 0.0316 µM
[26] = second compound 3.16 µM, first compound 0.1 µM
[27] = second compound 3.16 µM, first compound 0.316 µM
[28] = second compound 3.16 µM, first compound 1 µM
[29] = second compound 3.16 µM, first compound 3.16 µM
[30] = second compound 3.16 µM, first compound 10 µM
[31] = second compound 10 µM, first compound 0.0316 µM
[32] = second compound 10 µM, first compound 0.1 µM
[33] = second compound 10 µM, first compound 0.316 µM
[34] = second compound 10 µM, first compound 1 µM
[35] = second compound 10 µM, first compound 3.16 µM
[36] = second compound 10 µM, first compound 10 µM
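Also: spheroids exposed to compounds for 7 days before readout.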

Question: `CC(=O)O[C@H]1C(=O)[C@@]2(C)[C@H]([C@H](OC(=O)c3ccccc3)[C@]3(O)C[C@H](OC(=O)[C@H](O)[C@@H](NC(=O)c4ccccc4)c4ccccc4)C(C)=C1C3(C)C)[C@]1(OC(C)=O)CO[C@@H]1C[C@@H]2O` + CNC(=O)c1ccc(Nc2nc(OC3CCCC3)c3c(-c4ccc5nc(C)oc5c4)c[nH]c3n2)c(OC)c1 was tested. Which IC50 (second compound 0.0316 µM) did it give?
Answer: Its IC50 is < 31.6 nM.

Question: And the IC50 (second compound 0.1 µM)?
Answer: Its IC50 is < 31.6 nM.

Question: What about the IC50 (second compound 0.316 µM) of the same molecule?
Answer: Its IC50 is < 31.6 nM.

Question: What about the IC50 (second compound 1 µM) of the same molecule?
Answer: The IC50 was < 31.6 nM.

Question: And the IC50 (second compound 3.16 µM)?
Answer: The IC50 was < 31.6 nM.

Question: And the IC50 (second compound 10 µM)?
Answer: Its IC50 is < 31.6 nM.

Question: And the viability, T/C [1]?
Answer: The viability, T/C was 7.2%.

Question: And the viability, T/C [2]?
Answer: Its viability, T/C is 10.3%.

Question: And the viability, T/C [3]?
Answer: Its viability, T/C is 8.05%.

Question: And the viability, T/C [4]?
Answer: Its viability, T/C is 8.91%.

Question: And the viability, T/C [5]?
Answer: The viability, T/C was 7.98%.

Question: And the viability, T/C [6]?
Answer: Its viability, T/C is 26.6%.

Question: What about the viability, T/C [7] of the same molecule?
Answer: Its viability, T/C is 10.1%.

Question: And the viability, T/C [8]?
Answer: The viability, T/C was 8.61%.

Question: And the viability, T/C [9]?
Answer: Its viability, T/C is 9.22%.

Question: And the viability, T/C [10]?
Answer: Its viability, T/C is 10.1%.

Question: And the viability, T/C [11]?
Answer: Its viability, T/C is 14.3%.

Question: What about the viability, T/C [12] of the same molecule?
Answer: The viability, T/C was 38%.

Question: What about the viability, T/C [13] of the same molecule?
Answer: The viability, T/C was 33.1%.

Question: And the viability, T/C [14]?
Answer: The viability, T/C was 39.2%.

Question: And the viability, T/C [15]?
Answer: Its viability, T/C is 43.9%.

Question: And the viability, T/C [16]?
Answer: Its viability, T/C is 48.2%.

Question: And the viability, T/C [17]?
Answer: The viability, T/C was 83%.

Question: And the viability, T/C [18]?
Answer: The viability, T/C was 110%.

Question: What about the viability, T/C [19] of the same molecule?
Answer: The viability, T/C was 45.3%.

Question: What about the viability, T/C [20] of the same molecule?
Answer: Its viability, T/C is 50.2%.

Question: And the viability, T/C [21]?
Answer: Its viability, T/C is 54.3%.

Question: What about the viability, T/C [22] of the same molecule?
Answer: The viability, T/C was 60.5%.

Question: And the viability, T/C [23]?
Answer: Its viability, T/C is 88.4%.

Question: What about the viability, T/C [24] of the same molecule?
Answer: Its viability, T/C is 89.6%.

Question: And the viability, T/C [25]?
Answer: The viability, T/C was 38.8%.

Question: And the viability, T/C [26]?
Answer: Its viability, T/C is 46.5%.

Question: And the viability, T/C [27]?
Answer: Its viability, T/C is 54.1%.

Question: What about the viability, T/C [28] of the same molecule?
Answer: Its viability, T/C is 51.5%.

Question: And the viability, T/C [29]?
Answer: The viability, T/C was 74.2%.

Question: And the viability, T/C [30]?
Answer: The viability, T/C was 86.5%.

Question: And the viability, T/C [31]?
Answer: The viability, T/C was 36.8%.

Question: And the viability, T/C [32]?
Answer: Its viability, T/C is 43.2%.

Question: What about the viability, T/C [33] of the same molecule?
Answer: Its viability, T/C is 49.7%.

Question: And the viability, T/C [34]?
Answer: The viability, T/C was 60.2%.

Question: What about the viability, T/C [35] of the same molecule?
Answer: The viability, T/C was 77.1%.

Question: What about the viability, T/C [36] of the same molecule?
Answer: The viability, T/C was 84.3%.

Question: With `COc1ccc([C@@H](O)c2cc(-c3ncnc4cc(N5CCOCC5)ccc34)c(F)cc2Cl)nn1` + CNC(=O)c1ccc(Nc2nc(OC3CCCC3)c3c(-c4ccc5nc(C)oc5c4)c[nH]c3n2)c(OC)c1 as the molecule, how does the IC50 (second compound 0.0316 µM) read?
Answer: Its IC50 is > 10000 nM.

Question: What about the IC50 (second compound 0.1 µM) of the same molecule?
Answer: Its IC50 is > 10000 nM.

Question: What about the IC50 (second compound 0.316 µM) of the same molecule?
Answer: Its IC50 is < 31.6 nM.

Question: What about the IC50 (second compound 1 µM) of the same molecule?
Answer: The IC50 was < 31.6 nM.

Question: What about the IC50 (second compound 3.16 µM) of the same molecule?
Answer: The IC50 was < 31.6 nM.

Question: What about the IC50 (second compound 10 µM) of the same molecule?
Answer: Its IC50 is < 31.6 nM.

Question: What about the viability, T/C [1] of the same molecule?
Answer: The viability, T/C was 109%.

Question: And the viability, T/C [2]?
Answer: The viability, T/C was 95.5%.

Question: What about the viability, T/C [3] of the same molecule?
Answer: Its viability, T/C is 105%.

Question: And the viability, T/C [4]?
Answer: Its viability, T/C is 93%.

Question: What about the viability, T/C [5] of the same molecule?
Answer: The viability, T/C was 80.3%.

Question: And the viability, T/C [6]?
Answer: The viability, T/C was 51.1%.

Question: What about the viability, T/C [7] of the same molecule?
Answer: The viability, T/C was 98.9%.

Question: And the viability, T/C [8]?
Answer: The viability, T/C was 110%.

Question: What about the viability, T/C [9] of the same molecule?
Answer: The viability, T/C was 94.5%.

Question: And the viability, T/C [10]?
Answer: Its viability, T/C is 97.2%.

Question: And the viability, T/C [11]?
Answer: Its viability, T/C is 72.9%.

Question: And the viability, T/C [12]?
Answer: Its viability, T/C is 54.7%.

Question: What about the viability, T/C [13] of the same molecule?
Answer: Its viability, T/C is 42.2%.

Question: And the viability, T/C [14]?
Answer: Its viability, T/C is 41.4%.

Question: And the viability, T/C [15]?
Answer: Its viability, T/C is 49.1%.

Question: And the viability, T/C [16]?
Answer: Its viability, T/C is 43.2%.

Question: What about the viability, T/C [17] of the same molecule?
Answer: The viability, T/C was 45.5%.

Question: And the viability, T/C [18]?
Answer: The viability, T/C was 31.9%.

Question: What about the viability, T/C [19] of the same molecule?
Answer: The viability, T/C was 27.8%.

Question: What about the viability, T/C [20] of the same molecule?
Answer: Its viability, T/C is 28%.

Question: What about the viability, T/C [21] of the same molecule?
Answer: The viability, T/C was 29.1%.

Question: What about the viability, T/C [22] of the same molecule?
Answer: Its viability, T/C is 24.9%.

Question: What about the viability, T/C [23] of the same molecule?
Answer: Its viability, T/C is 25.9%.

Question: And the viability, T/C [24]?
Answer: Its viability, T/C is 21.4%.

Question: What about the viability, T/C [25] of the same molecule?
Answer: Its viability, T/C is 26.8%.

Question: What about the viability, T/C [26] of the same molecule?
Answer: Its viability, T/C is 30.3%.

Question: What about the viability, T/C [27] of the same molecule?
Answer: Its viability, T/C is 26.3%.

Question: And the viability, T/C [28]?
Answer: The viability, T/C was 25.9%.

Question: What about the viability, T/C [29] of the same molecule?
Answer: The viability, T/C was 23.6%.

Question: And the viability, T/C [30]?
Answer: Its viability, T/C is 18.4%.

Question: And the viability, T/C [31]?
Answer: Its viability, T/C is 28.2%.

Question: And the viability, T/C [32]?
Answer: The viability, T/C was 26.5%.

Question: What about the viability, T/C [33] of the same molecule?
Answer: Its viability, T/C is 23.1%.

Question: What about the viability, T/C [34] of the same molecule?
Answer: The viability, T/C was 24.4%.

Question: And the viability, T/C [35]?
Answer: The viability, T/C was 27.2%.

Question: What about the viability, T/C [36] of the same molecule?
Answer: Its viability, T/C is 17.7%.

Question: What does the source list for `COc1cccc2c1C(=O)c1c(O)c3c(c(O)c1C2=O)CC(O)(C(=O)CO)CC3OC1CC(N)C(O)C(C)O1` (stereo unspecified) + CNC(=O)c1ccc(Nc2nc(OC3CCCC3)c3c(-c4ccc5nc(C)oc5c4)c[nH]c3n2)c(OC)c1?
Answer: IC50 (second compound 0.0316 µM): 31.6 nM; IC50 (second compound 0.1 µM): < 31.6 nM; IC50 (second compound 0.316 µM): < 31.6 nM; IC50 (second compound 1 µM): < 31.6 nM; IC50 (second compound 3.16 µM): < 31.6 nM; IC50 (second compound 10 µM): < 31.6 nM; viability, T/C [1]: 51.4%; viability, T/C [2]: 23%; viability, T/C [3]: 21.7%; viability, T/C [4]: 6.66%; viability, T/C [5]: 1.89%; viability, T/C [6]: 1.95%; viability, T/C [7]: 46.4%; viability, T/C [8]: 26.4%; viability, T/C [9]: 19.6%; viability, T/C [10]: 4.09%; viability, T/C [11]: 2.62%; viability, T/C [12]: 1.16%; viability, T/C [13]: 27.8%; viability, T/C [14]: 25%; viability, T/C [15]: 14.5%; viability, T/C [16]: 4.53%; viability, T/C [17]: 2.76%; viability, T/C [18]: 1.6%; viability, T/C [19]: 25.2%; viability, T/C [20]: 18.5%; viability, T/C [21]: 9.38%; viability, T/C [22]: 1.17%; viability, T/C [23]: 0.61%; viability, T/C [24]: 0.81%; viability, T/C [25]: 26.2%; viability, T/C [26]: 17.2%; viability, T/C [27]: 4.87%; viability, T/C [28]: 0.94%; viability, T/C [29]: 1.27%; viability, T/C [30]: 0.57%; viability, T/C [31]: 25.1%; viability, T/C [32]: 20.3%; viability, T/C [33]: 3.72%; viability, T/C [34]: 0.69%; viability, T/C [35]: 1.84%; viability, T/C [36]: 0.97%
